# Molecular target: T1, human kappa opioid receptor (Homo sapiens, UniProt P41145)
# T1 construct: expressed in transfected cells; host or cells: Chinese hamster ovary cells (CHO-hKOR), membranes
# Test: biochemical
# Assay type: binding
# Settings: not given
# T1 sequence (P41145 whole entry): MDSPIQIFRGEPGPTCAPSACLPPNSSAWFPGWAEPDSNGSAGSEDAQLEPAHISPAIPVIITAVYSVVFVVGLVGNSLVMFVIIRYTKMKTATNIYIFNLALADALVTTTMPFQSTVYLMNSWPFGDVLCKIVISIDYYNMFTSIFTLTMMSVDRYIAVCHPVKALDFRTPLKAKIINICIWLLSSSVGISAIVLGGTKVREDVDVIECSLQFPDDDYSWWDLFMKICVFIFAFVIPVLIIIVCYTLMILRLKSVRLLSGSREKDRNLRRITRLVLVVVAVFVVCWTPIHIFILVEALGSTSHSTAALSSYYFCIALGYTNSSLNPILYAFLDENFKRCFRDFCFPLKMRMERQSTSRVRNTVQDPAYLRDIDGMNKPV
row,Molecule,Ki [µM]
1,"CCCC(=O)OC1CC(C(=O)OC)C2(C)CCC3C(=O)OC(c4ccoc4)CC3(C)C2C1=O (stereo not drawn) [Compound 204b, 2-epi-salvinorin B butyrate]",0.665 ± 0.1
2,CC(=O)OC1CC(C(=O)NC(Cc2cnc[nH]2)C(=O)OCc2ccccc2)C2(C)CCC3C(=O)OC(c4ccoc4)CC3(C)C2C1=O (stereo not drawn) [Compound 105],> 10
3,COC(=O)[C@@H]1C[C@H](OC(=O)CN(C)C)C(=O)C2[C@@]1(C)CC[C@H]1C(=O)O[C@H](c3ccoc3)C[C@]21C (stereo partly drawn) [Compound 27],> 10
4,C=CCOC(=O)C1CC(OC(C)=O)C(=O)C2C1(C)CCC1C(=O)OC(c3ccoc3)CC12C (stereo not drawn) [Compound 56],> 10
5,"CCC(=O)OC1CC(C(=O)OC)C2(C)CCC3C(=O)OC(c4ccoc4)CC3(C)C2C1=O (stereo not drawn) [Compound 203b, 2-epi-salvinorin B propionate]",0.641 ± 0.122
6,"CN[C@@H]1C[C@@H](C(=O)OC)[C@]2(C)CC[C@H]3C(=O)O[C@H](c4ccoc4)C[C@]3(C)C2C1=O (stereo partly drawn) [Compound 11, 2-(N-methylamino)-salvinorin]",> 10
7,CCCCCOC(=O)C1CC(OC(C)=O)C(=O)C2C1(C)CCC1C(=O)OC(c3ccoc3)CC12C (stereo not drawn) [Compound 40],> 10
8,CC(=O)OC1CC(C(=O)NC(C)C(=O)OCc2ccccc2)C2(C)CCC3C(=O)OC(c4ccoc4)CC3(C)C2C1=O (stereo not drawn) [Compound 99],> 10
9,"CC(=O)OC1CC(C(=O)N(C)C)C2(C)CCC3C(=O)OC(c4ccoc4)CC3(C)C2C1=O (stereo not drawn) [Compound 221, C(4)-N,N-dimethylamide salvinorin A]",> 10
10,"CCOC1CC(C(=O)OC)C2(C)CCC3C(=O)OC(c4ccoc4)CC3(C)C2C1=O (stereo not drawn) [Compound 206b, 2-epi-(O-ethyl)-salvinorin B]",> 10
11,"CCC(=O)N(C)C1CC(C(=O)OC)C2(C)CCC3C(=O)OC(c4ccoc4)CC3(C)C2C1=O (stereo not drawn) [Compound 215a, 2-(N-methylpropionamide)-salvinorin]",0.0016 ± 0.0001
12,COC(=O)[C@@H]1C[C@H](OC(=O)CNC(C)=O)C(=O)C2[C@@]1(C)CC[C@H]1C(=O)O[C@H](c3ccoc3)C[C@]21C (stereo partly drawn) [Compound 26],> 10
13,CCCOC(=O)C1CC(OC(C)=O)C(=O)C2C1(C)CCC1C(=O)OC(c3ccoc3)CC12C (stereo not drawn) [Compound 54],> 10
14,C#CCCOC(=O)C1CC(OC(C)=O)C(=O)C2C1(C)CCC1C(=O)OC(c3ccoc3)CC12C (stereo not drawn) [Compound 53],> 10
15,"COC(=O)C1CC(OC)C(=O)C2C1(C)CCC1C(=O)OC(c3ccoc3)CC12C (stereo not drawn) [Compound 205b, 2-epi-(O-methyl)-salvinorin B]",> 10
16,CCOC(=O)C1CC(OC(C)=O)C(=O)C2C1(C)CCC1C(=O)OC(c3ccoc3)CC12C (stereo not drawn) [Compound 33],> 10
17,"COC(=O)[C@@H]1C[C@H](OC(=O)CN(C)C)C(=O)C2[C@@]1(C)CC[C@H]1C(=O)O[C@H](c3ccoc3)C[C@]21C (stereo partly drawn) [Compound 12, 2-(2′-(N,N-dimethylamino)acetate) salvinorin B]",> 10
18,CCCCOC(=O)C1CC(OC(C)=O)C(=O)C2C1(C)CCC1C(=O)OC(c3ccoc3)CC12C (stereo not drawn) [Compound 35],> 10
19,"CC(=O)O[C@H]1C[C@@H](CO)[C@]2(C)CCC3C(=O)O[C@H](c4ccoc4)C[C@]3(C)[C@H]2C1=O (stereo partly drawn) [Compound 222, O-demethyl-18-deoxysalvinorin A]",> 10
20,CCCCCCCCOC(=O)C1CC(OC(C)=O)C(=O)C2C1(C)CCC1C(=O)OC(c3ccoc3)CC12C (stereo not drawn) [Compound 42],> 10
21,COC(=O)[C@@H]1C[C@H](OC(=O)[C@H](C)N)C(=O)C2[C@@]1(C)CC[C@H]1C(=O)O[C@H](c3ccoc3)C[C@]21C (stereo partly drawn) [Compound 25],> 10
22,CC(=O)OC1CC(C(=O)N2CCCC2C(=O)OCc2ccccc2)C2(C)CCC3C(=O)OC(c4ccoc4)CC3(C)C2C1=O (stereo not drawn) [Compound 104],> 10
23,CC(=O)OC1CC(C(=O)OCc2ccccc2)C2(C)CCC3C(=O)OC(c4ccoc4)CC3(C)C2C1=O (stereo not drawn) [Compound 37],> 10

# Same assay, conditions: read-out: Ki
row,Molecule,Ki [µM]
1,"CNCC1CC(OC(C)=O)C(=O)C2C1(C)CCC1C(=O)OC(c3ccoc3)CC12C (stereo not drawn) [C8-epi-compound 224, 8-epi-4-(N-methylamino)methyl salvinorin A]",> 10
2,"CNC(=O)C1CC(OC(C)=O)C(=O)C2C1(C)CCC1C(=O)OC(c3ccoc3)CC12C (stereo not drawn) [C8-epi-compound 219, 8-epi-C(4)-N-methylamide salvinorin A]",1.39 ± 0.218
3,"CCNCC1CC(OC(C)=O)C(=O)C2C1(C)CCC1C(=O)OC(c3ccoc3)CC12C (stereo not drawn) [C8-epi-compound 225, 8-epi-4-(N-ethylamino)methyl salvinorin A]",> 10
4,"CNC(=O)[C@@H]1C[C@H](OC(C)=O)C(=O)[C@H]2[C@@]1(C)CC[C@H]1C(=O)O[C@H](c3ccoc3)C[C@]21C [Compound 219, C(4)-N-methylamide salvinorin A]",> 1
5,"CC(=O)OC1CC(CN(C)C)C2(C)CCC3C(=O)OC(c4ccoc4)CC3(C)C2C1=O (stereo not drawn) [C8-epi-compound 226, 8-epi-4-(N,N-dimethylamino)methyl salvinorin A]",> 10
6,8-epi-O-demethyl-18-deoxysalvinorin A [C8-epi-compound 222],1 ± 0.269

# Molecular target: T1, human kappa opioid receptor
# Test: biochemical
# Settings: 1 h, read-out: Efficacy
row,Molecule,Emax [%]
1,"CCC(=O)N(CC)[C@@H]1C[C@@H](C(=O)OC)[C@]2(C)CC[C@H]3C(=O)O[C@H](c4ccoc4)C[C@]3(C)[C@H]2C1=O [Compound 217b, 2-epi-(N-ethylpropionamide)-salvinorin]",96
2,"COC(=O)[C@@H]1C[C@H](O)C(=O)C2[C@@]3(C)C[C@@H](c4ccoc4)OC(=O)[C@H]3CC[C@]21C (stereo partly drawn) [Compound 5, Episalvinorin B]",102
3,"CCC(=O)N(CC)[C@H]1C[C@@H](C(=O)OC)[C@]2(C)CC[C@H]3C(=O)O[C@H](c4ccoc4)C[C@]3(C)[C@H]2C1=O [Compound 217a, 2-(N-ethylpropionamide)-salvinorin]",100
4,"CCO[C@H]1C[C@@H](C(=O)OC)[C@]2(C)CC[C@H]3C(=O)O[C@H](c4ccoc4)C[C@]3(C)C2C1=O (stereo partly drawn) [Compound 15, 2-ethoxy-salvinorin B]",103
5,"COC(=O)[C@@H]1C[C@@H](N(C)C(C)=O)C(=O)C2[C@@]1(C)CC[C@H]1C(=O)O[C@H](c3ccoc3)C[C@]21C (stereo partly drawn) [Compound 80, 2-epi-(N-methylacetamide)-salvinorin]",106
6,"CCN(C(C)=O)[C@H]1C[C@@H](C(=O)OC)[C@]2(C)CC[C@H]3C(=O)O[C@H](c4ccoc4)C[C@]3(C)[C@H]2C1=O [Compound 216a, 2-(N-ethylacetamide)-salvinorin]",104
7,"CCN(C(C)=O)[C@@H]1C[C@@H](C(=O)OC)[C@]2(C)CC[C@H]3C(=O)O[C@H](c4ccoc4)C[C@]3(C)[C@H]2C1=O [Compound 216b, 2-epi-(N-ethylacetamide)-salvinorin]",95
8,"CCC(=O)N[C@H]1C[C@@H](C(=O)OC)[C@]2(C)CC[C@H]3C(=O)O[C@H](c4ccoc4)C[C@]3(C)[C@H]2C1=O [Compound 213a, 2-(propionamide)-salvinorin]",109
9,"CCC(=O)N[C@@H]1C[C@@H](C(=O)OC)[C@]2(C)CC[C@H]3C(=O)O[C@H](c4ccoc4)C[C@]3(C)[C@H]2C1=O [Compound 213b, 2-epi-(propionamide)-salvinorin]",102
10,"COC(=O)[C@@H]1C[C@H](O)C(=O)C2[C@@]1(C)CC[C@H]1C(=O)O[C@H](c3ccoc3)C[C@]21C (stereo partly drawn) [Compound 1, salvinorin B]",98

# Source: US20070213394A1 (priority 2004, published 2007)
